Assay results from patent US20230102223A1, “PHARMACEUTICAL COMPOSITIONS WITH ANTIFLAVIVIRAL ACTIVITY” (HEALTH RESEARCH, INC., priority 2016, published 2023).
Structures can show the parent of a compound that is named as a salt. Where two headings read alike, the source gives them in different places.

How the values were obtained:
[1] = target: NS2B-NS3 interactions (Nluc-E66stop/GCN) (Dengue virus type 2, UniProt P29990); experiment: biochemical; assay type: binding, DENV2
[2] = Cytotoxicity, MTT or WST-8 cell proliferation assay; settings: human, A549 cells
A549 cells = experiment: as above
DENV2 [3] = experiment: microbe, parasite or virus in culture; settings: Dengue virus
DENV2 [4] = system: DENV2
[5] = target: refolded His-NS3 protease domain (Dengue virus type 2, UniProt P29990); experiment: Surface plasmon resonance (SPR); assay type: binding
[6] = system: ZIKV (Puerto Rico strain PRVABC59); experiment: Viral titer reduction assay in A549 cells, ZIKV; assay type: cell-based, Zika virus; settings: for titer of ZIKV in the absence of light exposure: in dark
[7] = target: DENV2 His-NS2B/His-MBP-NS3 protease (Dengue virus type 2, UniProt P29990); experiment: NS2B/NS3 protease inhibition assay; assay type: biochemical
JEV = experiment: microbe, parasite or virus in culture; assay type: cell-based, Japanese encephalitis virus
SLEV = assay type: cell-based, St. Louis encephalitis virus; settings: without ambient light (in dark)
[8] = target: ZIKV GST-NS3 protease domain / FLAG-tagged ZIKV NS2B (Zika virus, UniProt Q32ZE1); experiment: Competitive GST pull-down assay; assay type: binding; settings: pre-incubation with GST-NS3 beads; dose-dependent
Method: GST-NS3 or the GST-tag (10 μg) was immobilized on Glutathione sepharose-4B affinity beads (GE HealthCare). FLAG-tagged NS2B (10 μg) was incubated with the beads for 2 hours, and subjected to WB, using anti-FLAG (Genscript) and anti-GST antibodies (GE Healthcare). […] The assay was performed the same as in FIG. 32A, except that 2-fold dilution series of drugs were incubated with the GST-NS3 beads overnight prior to incubation with the FLAG-NS2B. […] The binding of NS2B to NS3 in the absence of each drag (DMSO control) was set as 100%. The relative binding of NS2B to NS3 in the presence of each drug was normalized to the DMSO control.

ZIKV GZ01/2016 strain = experiment: Lethal A129 mice model; assay type: in vivo; settings: 1 mg/kg ip daily for 5 days
Source text: For the lethal A129 mice model, a group of four-week old A129 mice were infected intraperitoneally (ip) with 2×10^5 PFU of ZIKV GZ01/2016 strain. […] Mice were observed daily for signs of illness and mortality. Survival curves were compared using the Log-rank test. All the ZIKV-infected animals treated with vehicle died with typical neurological symptoms including hind limb weakness and paralysis (FIG. 31B). […] Viremia was detected by RT-qPCR on day 2 post-ZIKV infection in three-week old Balb/C mice.

ZIKV strain GZ01/2016 = experiment: Viremia model in immunocompetent Balb/C mice; assay type: in vivo; settings: 0.02 mg/mice ip daily for 2 days; RT-qPCR on day 2 post-infection
Method: Viremia on day 2 post-infection (pi) was determined by RT-qPCR, and statistical analysis was performed using the unpaired, two-tailed t-test.

YFV = experiment: microbe, parasite or virus in culture; assay type: cell-based, yellow fever virus
ZIKV strain GZ01 = settings: ZIKV strain GZ01, Vero cells, RT-qPCR
DENV2 His-MBP-NS3 = DENV2 His-MBP-NS3 (Dengue virus type 2, UniProt P29990); experiment: Protein thermal shift assay (PTSA); assay type: binding; settings: compound 4.8 μM, protein 2.5 μM
Method: PTSA was conducted using an Applied Biosystem 7500 Fast Real-Time PCR System (ThermoFisher Scientific) from 25 to 80° C. The DENV2 His-MBP-NS3 (final concentration of 2.5 μM in 1× PBS) was mixed with each compound to attain a 4.8 μM final concentration in 1.6% DMSO in the MicroAmp® Fast Optical 96-Well Reaction Plate (ThermoFisher Scientific). Thermal denaturation was monitored using SYPRO Orange (Life Technologies) according to manufacturer's manual. The denaturation of the proteins was monitored by following the increase of the fluorescence emitted by the probe that binds exposed hydrophobic regions of the denatured protein. The melting temperature (Tm) was calculated as the mid-log of the transition phase from the native to the denatured protein, using a Derivative model using the Protein Thermal Shift™ Software v1.0 (ThermoFisher Scientific). The reference unfolding temperature of proteins in 1.6% DMSO (Tm-DMSO) was subtracted from the values in the presence of each compounds (Tm-comp) to obtain thermal shifts, ΔTm=Tm-comp−Tm-DMSO. Compounds were considered to be binders when ΔTm>0.5° C.

ZIKV NS3 expression = experiment: Western blot of viral protein expression; assay type: cell-based; settings: 48 hrs; dose-dependent
Method: The ability of compounds to inhibit viral protein expression was also tested by WB, using GTX133309 ZIKV α-NS3 antibody (GeneTex, Inc.).
Lower panel, NS3 expression normalized to the GAPDH loading control.

WNV = experiment: microbe, parasite or virus in culture; assay type: cell-based, West Nile virus
POWV = assay type: cell-based, Powassan virus; settings: without ambient light (in dark)
ZIKV = experiment: Time-of-addition experiment in infected A549 cells; assay type: cell-based, Zika virus; settings: for virus reduction: titers at 48 h, no ambient light; for effectiveness of addition at 24-hour post-infection versus at the time of infection: temoporfin 90 nM, niclosamide 0.75 μM, viral plaque reduction assay
[9] = DENV2, A549, read-out: EC50 (DENV2)
[10] = 25° C., 1:1 Langmuir binding model, read-out: dissociation constant (KD)
[11] = Table 1, read-out: NS2B-MBP NS3 protease IC50
[12] = Japanese encephalitis virus, A549, JEV
[13] = NS2B-NS3 SLC signal, read-out: SLC IC50
[14] = ZIKV*, without ambient light (in dark)
[15] = JEV*, without ambient light (in dark)

Chain of refolded His-NS3 protease domain (P29990 1476-1653 limits assumed): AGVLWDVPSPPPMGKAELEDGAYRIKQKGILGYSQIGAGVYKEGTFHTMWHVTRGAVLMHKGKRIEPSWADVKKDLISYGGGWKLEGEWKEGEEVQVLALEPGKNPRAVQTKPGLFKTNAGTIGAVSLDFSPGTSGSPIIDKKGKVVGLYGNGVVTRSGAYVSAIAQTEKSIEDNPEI
Chain of DENV2 His-NS2B/His-MBP-NS3 protease (P29990 1476-1660 limits assumed): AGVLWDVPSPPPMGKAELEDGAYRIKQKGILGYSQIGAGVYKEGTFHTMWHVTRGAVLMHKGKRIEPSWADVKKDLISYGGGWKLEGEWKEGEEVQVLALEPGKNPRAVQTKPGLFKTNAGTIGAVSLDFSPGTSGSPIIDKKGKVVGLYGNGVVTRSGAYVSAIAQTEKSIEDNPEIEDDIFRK
Chain of NS2B-NS3 interactions (Nluc-E66stop/GCN) (P29990 1476-1660 limits assumed): as above
Chain of DENV2 His-MBP-NS3 (P29990 1476-1660 limits assumed): as above
Chain of ZIKV GST-NS3 protease domain / FLAG-tagged ZIKV NS2B (Q32ZE1 1499-1676): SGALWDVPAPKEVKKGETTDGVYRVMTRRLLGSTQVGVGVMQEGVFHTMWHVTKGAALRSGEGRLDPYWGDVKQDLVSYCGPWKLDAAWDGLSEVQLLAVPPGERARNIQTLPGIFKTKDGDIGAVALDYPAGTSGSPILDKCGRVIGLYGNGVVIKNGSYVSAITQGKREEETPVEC

Compound: O=c1c(-c2ccc(O)cc2)coc2cc(O)cc(O)c12 [Genistein]
- IC50 [1]: 7200 nM

Compound: Oc1ccc(C=Cc2cc(O)cc(O)c2)cc1 [Resveratrol]
- IC50 [1]: 9000 nM

Compound: CNC(=O)c1ccccc1Sc1ccc2c(/C=C/c3ccccn3)n[nH]c2c1 [Axitinib]
- IC50 [1]: 5300 nM

Compound: CC(=O)Oc1ccccc1C(=O)Nc1ncc([N+](=O)[O-])s1 [Nitazoxanide, [2-[(5-nitro-1,3-thiazol-2-yl)carbamoyl]phenyl]acetate]
- CC50 at 42 h ([2]; CC50, A549 cells, Table 1): > 100000 nM
- CC50 at 42 h ([2]; CC50, Table 3): 77000 ± 7200 nM
- CC50 (A549 cells; Table 3): 60000 nM
- IC50 [1]: 3400 nM
- EC50 (DENV2 [3]; [9]): < 10000 nM
- Therapeutic index (TI) (CC50/EC50) (DENV2 [4]; DENV2, Table 1): >0
- Kd [5, 10]: 7300 nM
- EC50 ([6]; Zika virus, A549, ZIKV): 1480 ± 180 nM
- EC90 ([6]; Zika virus, A549, ZIKV): 4000 nM
- IC50 [7, 11]: 15900 nM
- IC50 ([7]; Table 3, read-out: IC50-pro): 15900 ± 900 nM
- EC50 (JEV; [12]): 390 nM

Compound: 3-[10,15,20-tris(3-hydroxyphenyl)-2,3,22,24-tetrahydroporphyrin-5-yl]phenol [Temoporfin]
- EC50 (SLEV): 8 ± 1 nM
- EC90 (SLEV): 25 nM
- CC50 (A549 cells; A549 cells, Table 1): 40700 nM
- CC50 (A549 cells; Table 3): 40700 ± 700 nM
- IC50 [1, 13]: 11200 nM
- binding of FLAG-NS2B to GST-NS3 [8]: significantly decreased the binding
- infected animals protected (survival) (ZIKV GZ01/2016 strain): 83%
- reduction in ZIKV-induced viremia compared to the vehicle control (ZIKV strain GZ01/2016): about 100 fold
- EC50 (DENV2 [4]; DENV2, Table 3): 20 ± 3 nM
- EC90 (DENV2 [4]; DENV2, Table 3): 110 nM
- EC50 (DENV2 [4]; read-out: EC50 (DENV2), Table 1): 73 nM
- EC50 (YFV; YFV*, without ambient light (in dark), read-out: EC50): 6 ± 1 nM
- EC90 (YFV; YFV*, without ambient light (in dark), read-out: EC90): 15 nM
- EC50 value (ZIKV strain GZ01): 0.1 µg/mL
- Kd [5, 10]: 400 nM
- EC50 ([6]; ZIKV): 24 ± 3 nM
- EC90 ([6]; ZIKV): 130 nM
- EC50 [6, 14]: 22 ± 2 nM
- EC90 [6, 14]: 120 nM
- titer of ZIKV in the absence of light exposure [6]: significantly reduced the titer
- Tm compared to the DMSO control (DENV2 His-MBP-NS3): increased Tm
- expression of ZIKV NS3 (western blot) (ZIKV NS3 expression): significantly inhibited
- EC90 (WNV; WNV*, without ambient light (in dark)): 30 nM
- EC50 (WNV; WNV*, without ambient light (in dark), read-out: EC50): 10 ± 1 nM
- IC50 [7, 11]: 760 nM
- IC50 ([7]; Table 3, read-out: IC50-pro): 1100 ± 100 nM
- Vmax of the His-NS2B/MBP-NS3 hetero protease complex, % of the DMSO control ([7]; compound at 1.5 μM, 50 nM MBP-NS3, 1 μM His-NS2B, Abz substrate): 57%
- Km versus DMSO control ([7]; compound at 1.5 μM, Abz substrate): similar
- EC50 (JEV; [15]): 11 ± 1 nM
- EC90 (JEV; [15]): 25 nM
- EC50 (POWV): 10 ± 1 nM
- EC90 (POWV): 32 nM
- virus reduction (ZIKV; 90 nM added at 0 hours postinfection): 92.3%
- virus reduction (ZIKV; 90 nM added at 1 hour postinfection): 92%
- virus reduction (ZIKV; 90 nM added at 3 hours postinfection): 90.5%
- virus reduction (ZIKV; 90 nM added at 22 hours postinfection): 86.5%
- effectiveness of addition at 24-hour post-infection versus at the time of infection (ZIKV): almost equally effective

Compound: O=C(Nc1ncc([N+](=O)[O-])s1)c1cccs1 [Tenonitrozole]
- IC50 [1]: 4900 nM

Compound: Nc1ccc(N=Nc2ccccc2)cc1 [4-Aminoazobenzene]
- IC50 [1]: 12600 nM

Compound: Cc1ccc(O)c(-n2nc3ccccc3n2)c1 [2-(2H-Benzotriazol-2-yl)-4 methylphenol]
- IC50 [1]: 7800 nM

Compound: Amlenasox
- IC50 [1, 13]: 4700 nM

Compound: Clc1ccccc1-c1nc(-c2ccncc2)no1 [Pifexole]
- IC50 [1]: 7500 nM

Compound: CC(C)Oc1ccc2c(=O)c(-c3ccccc3)coc2c1 [Ipriflavone]
- IC50 [1]: 5300 nM

Compound: O=C(O)c1cccc(-c2noc(-c3ccccc3F)n2)c1 [Ataluren]
- CC50 at 42 h ([2]; CC50, A549 cells, Table 1): > 100000 nM
- IC50 [1]: 100 nM
- EC50 (DENV2 [3]; [9]): < 2000 nM
- Therapeutic index (TI) (CC50/EC50) (DENV2 [4]; DENV2, Table 1): >50
- IC50 [7, 11]: 21600 nM

Compound: CN(C)c1ccc2nc3ccc(=[N+](C)C)cc-3sc2c1 [Methylene blue, [7-(dimethylamino)phenothiazin-3-ylidene]-dimethylazanium;chloride]
- IC50 [1]: 5500 nM
- EC50 (DENV2 [3]; [9]): < 2000 nM
- EC50 ([6]; Zika virus, A549, ZIKV*, without ambient light (in dark)): 280 nM
- titer of ZIKV in the absence of light exposure [6]: significantly reduced the titer
- EC50 (WNV; West Nile virus, A549): 100 nM
- IC50 [7, 11]: 41600 nM
- IC50 ([7]; Table 3, read-out: IC50-pro): 40000 nM

Compound: CCN(CC)c1ccc(C(=C2C=CC(=[N+](CC)CC)C=C2)c2cc(S(=O)(=O)O)ccc2S(=O)(=O)[O-])cc1 [Isosulfan blue]
- IC50 [1, 13]: 12200 nM

Compound: Cc1cc2nc3ccc(N(C)C)cc3[s+]c2cc1N [Toluidine blue]
- IC50 [1, 13]: 14300 nM

Compound: COc1ccc2nc(NC(=O)Nc3ccccc3)sc2c1 [Frentizole]
- IC50 [1]: 380 nM

Compound: CC(C)CCOC(=O)c1ccc(N(C)C)cc1 [Padimate]
- IC50 [1, 13]: 14400 nM

Compound: O=C(Nc1ccc([N+](=O)[O-])cc1Cl)c1cc(Cl)ccc1O [Niclosamide, 5-chloro-N-(2-chloro-4-nitrophenyl)-2-hydroxybenzamide]
- IC50 [1]: 700 nM
- binding of FLAG-NS2B to GST-NS3 [8]: significantly decreased the binding
- EC50 (DENV2 [3]; DENV2, A549): 550 ± 50 nM
- EC90 (DENV2 [3]; DENV2, A549): 2300 nM
- EC50 (DENV2 [3]; [9]): 550 nM
- Therapeutic index (TI) (CC50/EC50) (DENV2 [4]; DENV2, Table 1): >182
- EC50 (YFV; Yellow fever virus, A549): 840 ± 20 nM
- EC90 (YFV; Yellow fever virus, A549): 1900 nM
- Kd [5]: 6400 nM
- EC50 ([6]; Zika virus, A549, ZIKV): 480 ± 60 nM
- EC90 ([6]; Zika virus, A549, ZIKV): 1900 nM
- Tm compared to the DMSO control (DENV2 His-MBP-NS3): increased Tm
- expression of ZIKV NS3 (western blot) (ZIKV NS3 expression): significantly inhibited
- EC90 (WNV; West Nile virus, A549, WNV): 2300 nM
- EC50 (WNV; West Nile virus, A549, WNV, read-out: EC50): 540 ± 170 nM
- IC50 [7, 11]: 12300 nM
- IC50 ([7]; Table 3, read-out: IC50-pro): 12300 ± 600 nM
- EC50 (JEV; [12]): 1020 ± 80 nM
- EC90 (JEV; [12]): 2400 nM
- effectiveness of addition at 24-hour post-infection versus at the time of infection (ZIKV): almost equally effective

Compound: CS(=O)(=O)c1ccc(-c2cn3ccccc3n2)cc1 [Zolimidine]
- IC50 [1]: 12100 nM

Compound: c1ccc(CCNc2nc(-c3ccccc3)cs2)cc1 [Fanetizole]
- IC50 [1]: 12400 nM

Compound: Nc1ccc(/N=N/c2ccccc2)c(N)n1 [Phenazopyridine hydrochloride]
- IC50 [1]: 13200 nM
